Target: SHP2 (Homo sapiens (Human), UniProt Q06124)
Experiment: SHP2 Allosteric Inhibition Assay (DiFMUP prompt fluorescence)
Type: biochemical
Conditions: 0.25 nM SHP2 activated with 0.5 μM peptide IRS1_pY1172(dPEG8)pY1222; substrate DiFMUP 100 μM
Excerpt: SHP2 is allosterically activated through binding of bis-tyrosyl-phosphorylated peptides to its Src Homology 2 (SH2) domains. The latter activation step leads to the release of the auto-inhibitory interface of SHP2, which in turn renders the SHP2 protein tyrosine phosphatase (PTP) active and available for substrate recognition and reaction catalysis. The catalytic activity of SHP2 was monitored using the surrogate substrate DiFMUP in a prompt fluorescence assay format.
The inhibitor dose response curves were analyzed using normalized IC50 regression curve fitting with control based normalization.

Sequence of SHP2 (Q06124 whole entry): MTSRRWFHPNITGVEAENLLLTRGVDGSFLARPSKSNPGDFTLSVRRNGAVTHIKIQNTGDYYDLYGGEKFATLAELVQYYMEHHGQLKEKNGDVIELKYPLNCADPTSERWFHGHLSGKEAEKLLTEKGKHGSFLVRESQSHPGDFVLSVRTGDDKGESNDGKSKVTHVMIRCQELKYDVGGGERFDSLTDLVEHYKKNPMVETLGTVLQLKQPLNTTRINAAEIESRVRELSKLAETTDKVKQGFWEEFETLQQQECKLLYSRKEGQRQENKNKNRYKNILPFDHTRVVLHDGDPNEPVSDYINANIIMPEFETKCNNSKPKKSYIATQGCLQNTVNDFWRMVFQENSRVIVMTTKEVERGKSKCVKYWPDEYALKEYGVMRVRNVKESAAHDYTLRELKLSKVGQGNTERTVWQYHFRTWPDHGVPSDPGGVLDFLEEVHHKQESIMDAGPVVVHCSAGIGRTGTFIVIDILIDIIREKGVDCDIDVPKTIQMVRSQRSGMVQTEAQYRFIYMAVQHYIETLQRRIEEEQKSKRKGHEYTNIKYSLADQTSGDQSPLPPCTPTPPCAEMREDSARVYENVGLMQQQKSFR

Compound | IC50
CC1(N)CCN(c2cnc3c(-c4ccccc4Cl)n[nH]c3n2)CC1 [Compound 6] | < 10 µM
Clc1ccccc1-c1n[nH]c2nc(N3C4CCCC3CC4)cnc12 [Compound 8] | 10 to 100 µM
N[C@H]1CC12CCN(c1cnc3c(-c4ccccc4Cl)n[nH]c3n1)CC2 [Compound 9] | < 10 µM
CC1(CN)CCN(c2cnc3c(-c4cccc(Cl)c4Cl)n[nH]c3n2)CC1 [Compound 10] | < 10 µM
O=C1NCC2(CCN(c3cnc4c(-c5ccccc5Cl)n[nH]c4n3)CC2)N1 [Compound 11] | 10 to 100 µM
NC(=O)C1(N)CCN(c2cnc3c(-c4cccc(Cl)c4)n[nH]c3n2)CC1 [Compound 12] | < 10 µM
CC1(CN)CCCN(c2cnc3c(-c4ccccc4Cl)n[nH]c3n2)CC1 (stereo not shown) [Compound 13] | < 10 µM
CC(C)(N)C1CCN(c2cnc3c(-c4ccccc4Cl)n[nH]c3n2)CC1 [Compound 14] | 10 to 100 µM
CC1(CN)CCN(c2cnc3c(-c4ccccc4)n[nH]c3n2)CC1 [Compound 15] | < 10 µM
N[C@@H]1CCCC12CCN(c1cnc3c(-c4ccccc4Cl)n[nH]c3n1)CC2 [Compound 16] | < 10 µM
CC1(N)CCN(c2cnc3c(-c4ccc(Cl)cc4)n[nH]c3n2)CC1 [Compound 17] | < 10 µM
NC1CC12CCN(c1cnc3c(-c4ccccc4Cl)n[nH]c3n1)CC2 (stereo not shown) [Compound 18] | < 10 µM
CC1(CN)CCN(c2cnc3c(-c4ccncc4)n[nH]c3n2)CC1 [Compound 19] | < 10 µM
NCC1(O)CCCN(c2cnc3c(-c4ccccc4Cl)n[nH]c3n2)CC1 (stereo not shown) [Compound 20] | < 10 µM
CC1(CN)CCN(c2cnc3c(-c4ncccc4Cl)n[nH]c3n2)CC1 [Compound 22] | 10 to 100 µM
NCC1(F)CCN(c2cnc3c(-c4ccccc4Cl)n[nH]c3n2)CC1 [Compound 24] | < 10 µM
NCC1(O)CCN(c2cnc3c(-c4cccc(Cl)c4)n[nH]c3n2)CC1 [Compound 25] | < 10 µM
N[C@H]1CCC12CCN(c1cnc3c(-c4ccccc4Cl)n[nH]c3n1)CC2 [Compound 26] | < 10 µM
NCC1CCN(c2cnc3c(-c4cccc(Cl)c4)n[nH]c3n2)C1 (stereo not shown) [Compound 27] | < 10 µM
NC1CCC12CCN(c1cnc3c(-c4ccccc4Cl)n[nH]c3n1)CC2 (stereo not shown) [Compound 28] | < 10 µM
CC1(CN)CCN(c2cnc3c(-c4ccc(Cl)cc4)n[nH]c3n2)CC1 [Compound 29] | < 10 µM
NC(CO)C1CCN(c2cnc3c(-c4ccccc4Cl)n[nH]c3n2)CC1 (stereo not shown) [Compound 30] | < 10 µM
CC1(N)CCN(c2cnc3c(-c4cccc(Cl)c4)n[nH]c3n2)CC1 [Compound 31] | < 10 µM
COC1(CN)CCN(c2cnc3c(-c4ccccc4Cl)n[nH]c3n2)CC1 [Compound 32] | < 10 µM
N[C@H]1CCN(c2cnc3c(-c4ccccc4Cl)n[nH]c3n2)C[C@@H]1O [Compound 33] | < 10 µM

Compound | IC50
CC1(CN)CCN(c2cnc3c(-c4cccc(Cl)c4Br)n[nH]c3n2)CC1 [Compound 34] | < 10 µM
N[C@H]1CCCC12CCN(c1cnc3c(-c4ccccc4Cl)n[nH]c3n1)CC2 [Compound 35] | < 10 µM
CNCC1(C)CCN(c2cnc3c(-c4ccccc4Cl)n[nH]c3n2)CC1 [Compound 36] | 10 to 100 µM
N[C@@H]1CCC12CCN(c1cnc3c(-c4ccccc4Cl)n[nH]c3n1)CC2 [Compound 37] | 10 to 100 µM
NC1CCN(c2cnc3c(-c4ccccc4Cl)n[nH]c3n2)CC1 [Compound 38] | < 10 µM
COc1cccc(-c2n[nH]c3nc(N4CCC(C)(CN)CC4)cnc23)c1Cl [Compound 39] | < 10 µM
NCC1CCCN(c2cnc3c(-c4ccccc4Cl)n[nH]c3n2)CC1 (stereo not shown) [Compound 40] | < 10 µM
Clc1ccccc1-c1n[nH]c2nc(N3CCC4(CCCN4)CC3)cnc12 [Compound 41] | < 10 µM
COCC1(CN)CCN(c2cnc3c(-c4ccccc4Cl)n[nH]c3n2)CC1 [Compound 42] | < 10 µM
CC1(CN)CCN(c2cnc3c(-c4ccccc4Cl)n[nH]c3n2)CC1 [Compound 43] | < 10 µM
Clc1ccccc1-c1n[nH]c2nc(N3CC4CNCC4C3)cnc12 (stereo not shown) [Compound 44] | < 10 µM
Clc1cccc(-c2n[nH]c3nc(N4CCCCC4)cnc23)c1Cl [Compound 45] | > 100 µM
NCC1(N)CCN(c2cnc3c(-c4ccccc4Cl)n[nH]c3n2)CC1 [Compound 46] | < 10 µM
CC(N)C1CCN(c2cnc3c(-c4ccccc4Cl)n[nH]c3n2)CC1 (stereo not shown) [Compound 47] | < 10 µM
CC1(CN)CCN(c2cnc3c(-c4cccc(Cl)c4F)n[nH]c3n2)CC1 [Compound 48] | < 10 µM
N[C@@H]1CC12CCN(c1cnc3c(-c4ccccc4Cl)n[nH]c3n1)CC2 [Compound 49] | 10 to 100 µM
CC1(CN)CCN(c2cnc3c(-c4cccc(Cl)c4)n[nH]c3n2)CC1 [Compound 50] | < 10 µM
NCC1(CO)CCN(c2cnc3c(-c4ccccc4Cl)n[nH]c3n2)CC1 [Compound 51] | < 10 µM
NCC1(O)CCN(c2cnc3c(-c4ccccc4Cl)n[nH]c3n2)CC1 [Compound 52] | < 10 µM
O=C1NCC2(CCCN(c3cnc4c(-c5ccccc5Cl)n[nH]c4n3)CC2)O1 (stereo not shown) [Compound 53] | 10 to 100 µM
COc1ccccc1-c1n[nH]c2nc(N3CCC(C)(CN)CC3)cnc12 [Compound 54] | < 10 µM
Clc1ccccc1-c1n[nH]c2nc(N3CCC4(CCNC4)C3)cnc12 (stereo not shown) [Compound 55] | 10 to 100 µM
NC1(CO)CCN(c2cnc3c(-c4ccccc4Cl)n[nH]c3n2)CC1 [Compound 56] | < 10 µM
N[C@@H]1[C@H]2CN(c3cnc4c(-c5cccc(Cl)c5)n[nH]c4n3)C[C@@H]12 [Compound F21] | < 10 µM

Reference: US11529347B2, “SHP2 phosphatase inhibitors and methods of use thereof” (Relay Therapeutics, Inc., priority 2016, dated 2022)
